# “Also recorded” adds a separate entry of the source.
# What was measured:
# C2C12 cells = test: Inhibition of intracellular protein degradation in C2C12 cells; type: cell-based, mouse; conditions: for IC50: Mus musculus, C2C12 cells, 35S-methionine labelled, TCA soluble radioactivity
# Description: C2C12 cells (a mouse myoblast line) were labeled for 48 hrs with ^35S-methionine. The cells were then washed and preincubated for 2 hrs in the same media supplemented with 2 mM unlabelled methionine. The media was removed and replaced with a fresh aliquot of the preincubation media containing 50% serum, and a concentration of the compound to be tested. The media was then removed and made up to 10% TCA and centrifuged. The TCA soluble radioactivity was counted. Inhibition of proteolysis was calculated as the percent decrease in TCA soluble radioactivity.
# [1] = molecular target: T1, PA28-activated 20S proteasome (Homo sapiens, UniProt P28074); test: Inactivation of the chymotrypsin-like activity of PA28-activated 20S proteasome (Suc-Leu-Leu-Val-Tyr-AMC); type: biochemical; conditions: for kinact/KI: rate of enzyme inactivation, chymotrypsin-like activity of PA28-activated 20S proteasome, 37° C., pH 8.0, read-out: Kobs/[I]
# T1 construct: from tissue
# Description: Purification of 20S proteasome and proteasome activator PA28 was performed as previously described (Dick et al., J. Biol. Chem. 271:7273 (1996)).
# 2 mL of assay buffer (20 mM HEPES, 0.5 mM EDTA, pH 8.0) and Suc-Leu-Leu-Val-Tyr-AMC in dimethyl sulfoxide were added to a 3 mL fluorescent cuvette, and the cuvette was placed in the jacketed cell holder of a Hitachi F-2000 fluorescence spectrophotometer. The temperature was maintained at 37° C. by a circulating water bath. 0.34 mg of PA28 were added and the reaction progress was monitored by the increase in fluorescence at 440 nm (λex=380 nm) that accompanies production of free AMC. […] After reaching a steady state of substrate hydrolysis, lactacystin was added to a final concentration of […], and the reaction was monitored for 1 h. The fluorescence (F) versus time (t) data were collected on a microcomputer using LAB CALC (Galactic) software. kinact values were estimated by a nonlinear least-squares fit of the data to the first order equation:
# where C=Ft=0 and A=Ft=∞−Ft=0.
# Male Sprague Dawley rats = test: Middle cerebral artery (MCA) occlusion/reperfusion: infarct size and neurological score; type: in vivo, rat; conditions: for infarct volume: rat MCA occlusion
# Description: Male Sprague Dawley rats (250-400 g) were anesthetized with haloethane and subjected to middle cerebral artery (MCA) occlusion using a nylon filament for 2 h. Subsequently, the filament was removed and reperfusion of the infarcted tissue occurred for 24 hours before the rat was sacrificed.
# Immediately after the filament was withdrawn, the animals were evaluated using a neurological scoring system. Neurological scores were expressed on a scale from 0 to 10, with 0 representing no neurological deficit and 10 representing severe neurological deficit. After 24 hours and before sacrifice, animals were evaluated a second time using the same neurological scoring system.
# Staining of coronal sections (2.0 mm×7-8) with triphenyltetrazolium chloride (TTC) taken throughout the brain were evaluated under blinded conditions using image analysis to determine infarct size.
# Rats were given i.v. bolus injections (1.0 mL/kg) of either vehicle (50% propylene glycol/saline; n=8) or 7-n-propyl-clasto-lactacystin β-lactone (3b) (0.3 mg/kg; n=7) at 2 hours after the start of the occlusion. Two additional groups of rats were given i.v. bolus injections (1.0 mL/kg) of 3b at 0 minutes, 2 hours, and 6 hours after the start of the occlusion. One group (0.1 mg/kg×3; n=6) received 0.1 mg/kg at each of these times, while another group (0.3 mg/kg×3; n=7) received 0.3 mg/kg at each of the three timepoints.
# [2] = Lactone hydrolysis to the dihydroxy acid; conditions: for half-life at 200 mM: HEPES/EDTA buffer, pH 7.8
# Description: (§1) The half-lives (ti1/2) for hydrolysis of β-lactone analogs to the corresponding dihydroxy acids were measured at 37° C. at a concentration of 200 mM in 20 mM HEPES, 0.5 mM EDTA, pH 7.8. Absorbance was measured for at least five half-lives (approximately 1 hour) at 230 nm, the wavelength at which there is the greatest difference in extinction coefficients for the lactone and dihydroxy.
# physchem = conditions: buffer, pH 7.8
# Description: as §1
Compound,IC50 (C2C12 cells),kinact/KI [1],half-life at 200 mM [2],other results
"CCC[C@H]1C(=O)N[C@@]2([C@@H](O)C(C)C)C(=O)O[C@@H]12 [Compound 3b, 7-n-propyl-clasto-lactacystin β-lactone]",290 nM,46500 M⁻¹ s⁻¹,15.3 min,"neurological score (Male Sprague Dawley rats; i.v. 0.1 mg/kg×3 dosage group): No significant improvement; neurological score (Male Sprague Dawley rats; i.v. 0.3 mg/kg×3 dosage group): No significant improvement; infarct volume decreased by (Male Sprague Dawley rats; rat MCA occlusion 2 h, reperfusion 24 h, single i.v. dose 0.3 mg/kg at 2 hours after start of occlusion): 50%; infarct volume (Male Sprague Dawley rats; i.v. 0.1 mg/kg×3 (0 minutes, 2 hours, 6 hours)): not significantly decreased; infarct volume (Male Sprague Dawley rats; i.v. 0.3 mg/kg×3 (0 minutes, 2 hours, 6 hours)): not significantly decreased; mean neurological score at 24 hours (Male Sprague Dawley rats; scale 0 to 10 (10 = severe deficit), single i.v. 0.3 mg/kg dose, vehicle 8.7±0.6): 4±1; neurological improvement (Male Sprague Dawley rats; single i.v. 0.3 mg/kg dose, versus vehicle at 24 hours): 60%"
CCCC[C@H]1C(=O)N[C@@]2([C@@H](O)C(C)C)C(=O)O[C@@H]12 [Compound 3c],330 nM,38000 M⁻¹ s⁻¹,17 min,–
"CC(C)[C@H](O)[C@@]12NC(=O)[C@H](C)[C@@H]1OC2=O [Compound 2, clasto-lactacystin β-lactone]",700 to 1100 nM,20000 M⁻¹ s⁻¹,–,half-life at 200 mM (physchem): 13 min
CC[C@H]1C(=O)N[C@@]2([C@@H](O)C(C)C)C(=O)O[C@@H]12 [Compound 3a],320 nM,39000 M⁻¹ s⁻¹,15.3 min,–
CC(C)C[C@H]1C(=O)N[C@@]2([C@@H](O)C(C)C)C(=O)O[C@@H]12 [Compound 3d],510 nM,17000 M⁻¹ s⁻¹,16.8 min,–
CO[C@H]1C(=O)N[C@@]2([C@@H](O)C(C)C)C(=O)O[C@@H]12 [Compound 3f],86000 nM,82200 M⁻¹ s⁻¹,3.7 min,relative potency in cell culture (C2C12 cells; compared to 2): less potent than 2; also recorded: much weaker activity; relative potency in the enzyme assay ([1]; compared to the other compounds of Table 1 / to 2): most potent; relative hydrolysis rate ([2]; compared to 2): more rapidly hydrolyzed

# Source: patent publication US6794516B2, “Synthesis of clasto-lactacystin β-lactone and analogs thereof” (Millennium Pharmaceuticals, Inc., priority 1997, dated 2004)
